Columns and labels:
SIRT1 = SIRT1 protein expression in normal human fibroblasts; format: cell-based
JNK pathway = assay: Immunoblot analysis of JNK phosphorylation; format: cell-based; details: normal human fibroblasts, within 24 hours; FIG. 2F
Protocol: Normal human fibroblasts were treated at various time points. Treatment was initiated at the indicated times prior to collection. The average of the maximum protein expression (within 24 hours) for three or more independent experiments is shown as fold change (drug treated/untreated). Actin (43 kDa) was the loading control. M denotes the marker lane. […] The * statistically significant increase in a measurement between drug treated and untreated or control samples or a statistically significant decrease in a measurement between drug treated and drug treated samples in the presence of SP600125 (p≦0.05) (n≧3 independent experiments unless otherwise noted) (Bars=SEM).

JUN, PGC1α and PGC1β = assay: RT-PCR of JUN and mitochondrial transcription factors; format: cell-based, human; details: FIG. 2E; for PGC1α and PGC1β transcript levels (abundance of mitochondrial transcription factors): 48 hours or more of treatment; for JUN transcript levels: normal human fibroblasts, six hours of treatment
Protocol: (§4) Following the manufacturer's protocols, DNase I-treated cDNA was synthesized using Superscript III or Thermoscript reverse transcriptase (Invitrogen). PCR reactions were performed in duplicate on the Roche Lightcycler 3.5 (Basel, Switzerland) or the Bio-Rad iCycler (Hercules, Calif.) using Quantitech SYBR green PCR mix (Qiagen, Valencia, Calif.). GeNorm software calculated a normalization factor for each sample using the relative amounts of at least two of the following reference genes, β2-microglobulin, glyceraldehyde-6-phosphate, actin, and/or eukaryotic elongation factor 1A (Vandesompele et al., 2002).
The relative gene expression for each treatment compared to untreated normal human fibroblasts was calculated and the fold change (drug treated/untreated) is shown.

[1] = tested on: class I and class II HDAC; assay: Colorimetric HDAC activity assay in HeLa or fibroblast lysates; format: biochemical; details: HeLa and human fibroblast lysates; two concentrations (treatment concentration and ten times); FIG. 6A-B
Protocol: A colorimetric HDAC activity assay was performed in triplicate using 100-200 μg of HeLa or fibroblast lysates following the manufacturer's protocol (K331; Biovision, Mountain View, Calif.).
Whether inhibition of class I and class II HDAC activities is a shared biochemical function that could account for the effects of all four small molecules was examined. Using lysates from HeLa cells and primary human fibroblasts, an in vitro colorimetric assay of HDAC activity was performed. Two concentrations of each small molecule were used. The first concentration was that used to treat primary human fibroblasts in the experiments reported herein, which minimally affects growth. The second concentration was ten times the first concentration and is lethal in cell culture. […] (* p≦0.00009; paired t-test; Bars=SEM for n≧3 independent experiments).

Ischemia = details: Qi et al., 2004, Yoon et al., 2008; cited from earlier work
normal human fibroblasts = assay: Quantitative in-cell western analysis with anti-ATP5B; format: cell-based; details: six days, FIG. 2B
Protocol: The immunostaining of primary human fibroblasts with anti-ATP5B, DRAQ5 (Cell Signaling Technologies, Danvers, Mass.; a cellular DNA stain to normalize cell number), and secondary antibody IRDye 800CW donkey anti-mouse IgG (Li-cor Biosciences, Lincoln, Nebr.) was identical to the indirect immunofluorescence procedure described above and performed in duplicate. Imaging and quantification were performed using the Odyssey Imager (L1-cor Biosciences).
In FIGS. 2A-B, the JNK inhibitor SP600125 (10 μM+inh) was utilized. […] Normal human fibroblasts were treated with each of the small four molecules with or without SP600125 for six days. Quantitative in-cell western analyses were performed using anti-ATP5B.

BCN1 and ATG5 = assay: RT-PCR of autophagy genes; format: cell-based, human; details: for ATG5 mRNA levels / BCN1 mRNA levels: normal human fibroblasts, FIG. 5A
Protocol: as §4
(§5) Expression of key components of the HSR, UPR, the autophagic response, and the antioxidant response were monitored at the transcriptional, translational, and/or post-translational level. […] Due to the transient nature of these responses, several components of each pathway were monitored at various time points within a 24 hour treatment. At least two normal human fibroblast lines were tested in three or more independent experiments. […] The average of the maximal increase in protein expression within a 24 hour time frame was also compared to the untreated sample. Activation of each pathway was assessed by an increase in one or more components of each pathway.
To monitor activation of autophagy, the expression of three classical autophagy markers was examined. The three classical autophagy markers are: (i) beclin-1 (BCN1), (ii) autophagy protein 5 (ATG5), and (iii) microtubule-associated protein 1 light chain 3 (LC3 or APG8). […] Normal human fibroblasts were treated as indicated. The expression of BCN1 and ATG5 were measured as described in FIG. 2E. After TSA treatment, the levels of ATG5 mRNA were measured in two independent experiments in duplicate.

NFE2L2, HMOX1, and SOD2 = assay: RT-PCR of antioxidant genes; format: cell-based, human; details: for HMOX1 mRNA levels / NFE2L2 mRNA levels / SOD2 mRNA levels: normal human fibroblasts, 18 hours, FIG. 5C
Protocol: as §4
The expression of three key components was examined—(i) nuclear factor erythroid 2-like 2 (NFE2L2), (ii) heme oxygenase 1 (HMOX1), and (iii) superoxide dismutase 2 (SOD2). […] Normal human fibroblasts were treated for 18 hours. The expression of NFE2L2, HMOX1, and SOD2 was measured as described in FIG. 2E.

HSP70 and HSP90 = assay: Immunoblot analyses of HSP expression; format: cell-based, human; details: for heat shock response (HSR): normal human fibroblasts
Protocol: as §5
Normal human fibroblasts were treated at various time points within 24 hours and the average of the maximum protein expression of HSP70 (70 kDa) and HSP90 (90 kDa) is plotted as in FIG. 2F. Actin (43 kDa) was used as a loading control. (UT=untreated cells; * statistical significance (p≦0.05); Bars=SEM for n≧3 independent experiments).

[2] = tested on: BIP, phosphorylated eIF2α, XBP1; assay: Immunoblot analyses of UPR protein expression and XBP1 splicing; format: cell-based, human
Protocol: Cell lysates were collected in mammalian protein extraction reagent (m-PER; Thermo Scientific, Rockford, Ill.) plus 1×protease inhibitor (Sigma-Aldrich) and 1×Halt phosphatase inhibitor (Thermo Scientific). Denatured SDS-PAGE and immunoblot analyses were performed using the following antibodies: phosphorylated JNK and β-actin from Santa Cruz Biotechnology, HSP70, HSP90, BIP, phosphorylated eIF2α, and XBP1 from Cell Signaling, APG8 (Abgent, San Diego, Calif.), and SOD2 (Stressgen, Ann Arbor, Mich.). Quantitation was performed using a Fuji Intelligent Dark box II, FUJI LAS-1000 Lite software and Image Gauge v4.22 software (Tokyo, Japan).
(§1) Expression of key components of the HSR, UPR, the autophagic response, and the antioxidant response were monitored at the transcriptional, translational, and/or post-translational level. These responses are known to be transiently activated in response to various cellular stressors. The degree of induction of each component can vary depending on the metabolic state of the cell (e.g., confluency, cell passage number) (Kultz 2003; Lallemand et al., 1998; Westerheide et al., 2009). Due to the transient nature of these responses, several components of each pathway were monitored at various time points within a 24 hour treatment. At least two normal human fibroblast lines were tested in three or more independent experiments. […] The average of the maximal increase in protein expression within a 24 hour time frame was also compared to the untreated sample. Activation of each pathway was assessed by an increase in one or more components of each pathway.
(§2) UPR markers evaluated included the central UPR regulator glucose regulated protein 78 (BIP) and other components that are stimulated after the activation of the three ER transmembrane receptors: PKR-like ER kinase (PERK), inositol requiring 1 (IRE1), and activating transcription factor 6 (Fedoroff 2006). […] 2 alpha (eIF2a) is phosphorylated by PERK, attenuates general translation, and induces activating transcription factor 4 (ATF4). CHOP promotes reactivation of PERK. XBP1 mRNA is non-conventionally spliced by the endonuclease activity of IRE1 upon UPR activation.
(§3) Normal human fibroblasts were treated with drugs as indicated. The expression of the UPR genes ATF4, CHOP, and BIP was measured as described in FIG. 2E. […] Normal human fibroblasts were treated at various time points and the average of the maximum protein expression of BIP (78 kDa) and phosphorylated eIF2α (38 kDa) is plotted as in FIG. 2F. Actin (43 kDa) was used as a loading control and is the same blot as FIG. 2F. UT denotes untreated cells. M denotes marker lane. […] Normal human fibroblasts were treated. The expression of the unspliced form (XBP1-us; 33 kDa) and the activated and spliced form of XBP1 (XBP1-s; 54 kDa) was analyzed by immunoblotting. BP1-s is a larger protein than XBP1-us due to non-canonical mRNA splicing which results in a larger carboxy-terminal domain. […] The average of the maximum expression of XBP1-s (within 24 hrs.) is plotted as in FIG. 2F. Actin was used as a loading control.

ATF4, CHOP, and BIP = assay: RT-PCR of unfolded protein response (UPR) genes; format: cell-based, human; details: for BIP expression at the transcriptional level: normal human fibroblasts, FIG. 4A
Protocol: Following the manufacturer's protocols, DNase I-treated cDNA was synthesized using Superscript III or Thermoscript reverse transcriptase (Invitrogen). PCR reactions were performed in duplicate on the Roche Lightcycler 3.5 (Basel, Switzerland) or the Bio-Rad iCycler (Hercules, Calif.) using Quantitech SYBR green PCR mix (Qiagen, Valencia, Calif.). GeNorm software calculated a normalization factor for each sample using the relative amounts of at least two of the following reference genes, β2-microglobulin, […], actin, and/or eukaryotic elongation factor 1A (Vandesompele et al., 2002). Primers for the various experiments described herein are listed below.
as §1, §2, §3

Spinal Muscular Atrophy = details: Lunn et al., 2008; cited from earlier work
Sickle Cell Disease = details: Hsiao et al., 2006; cited from earlier work
[3] = normal human fibroblasts, FIG. 4B

Compound | SIRT1 protein expression (SIRT1) | JNK pathway (JNK phosphorylation) (JNK pathway) | PGC1α and PGC1β transcript levels (abundance of mitochondrial transcription factors) (JUN, PGC1α and PGC1β) | JUN transcript levels (JUN, PGC1α and PGC1β) | HDAC activity compared to untreated lysates [1] | Therapeutic Effect (Ischemia) | mitochondrial mass (ATP5B) compared to untreated cells (normal human fibroblasts) | ATG5 mRNA levels (BCN1 and ATG5) | BCN1 mRNA levels (BCN1 and ATG5) | HMOX1 mRNA levels (NFE2L2, HMOX1, and SOD2) | NFE2L2 mRNA levels (NFE2L2, HMOX1, and SOD2) | SOD2 mRNA levels (NFE2L2, HMOX1, and SOD2) | heat shock response (HSR) (HSP70 and HSP90) | BIP expression at the translational level [2, 3] | BIP expression at the transcriptional level (ATF4, CHOP, and BIP) | Therapeutic Effect (Spinal Muscular Atrophy) | Therapeutic Effect (Sickle Cell Disease) | also measured
4-phenylbutyrate [4PBA] | no marked changes | activated | increased | significantly increased | significantly decreased | protection via antioxidant | 2.4 fold | increased | increased | significantly decreased | increased | increased | activated | significantly increased | significantly increased | increase percentage of full | increase F-cell production | 
NC(=O)NO [HU, hydroxyurea] | no marked changes | activated | increased | significantly increased | neither concentration of HU nor SFN reduced |  | 1.8 fold | increased | not reproducibly changed | significantly increased | increased | increased | activated | significantly increased | significantly increased | increase percentage of full | increase F-cell production | 
C[S@@+]([O-])CCCCN=C=S [SFN, 1-isothiocyanato-4R-(methylsulfinyl)butane] | no marked changes | activated | increased | not consistently changed | neither concentration of HU nor SFN reduced | protection via antioxidant | 2.2 fold | increased | increased | significantly increased | increased | increased | activated | significantly increased | significantly increased |  |  | ATG5 mRNA levels increase (BCN1 and ATG5; in vitro sulforaphane studies): 3 fold; BCN1 mRNA levels increase (BCN1 and ATG5; in vitro sulforaphane studies): 5 fold; expression of HMOX1 increase (NFE2L2, HMOX1, and SOD2; in vitro sulforaphane studies): 6 fold; expression of NFE2L2 increase (NFE2L2, HMOX1, and SOD2; in vitro sulforaphane studies): 3 fold; expression of SOD2 increase (NFE2L2, HMOX1, and SOD2; in vitro sulforaphane studies): 4 fold; total HSP70 protein levels increase (HSP70 and HSP90; in vitro sulforaphane studies): 3-4 fold; total HSP90 protein levels increase (HSP70 and HSP90; in vitro sulforaphane studies): 3-4 fold; BIP increase at the translational level ([2]; in vitro sulforaphane studies): 2-3 fold; amount of spliced XBP1 protein increase ([2]; in vitro sulforaphane studies): 3-4; total amount of XBP1 protein increase ([2]; in vitro sulforaphane studies): 3-4; eIF2α phosphorylation [2, 3]: modestly increased; pro-survival capabilities of all three UPR branches ([2]; transcriptional, post-transcriptional, translational and post-translational levels): activated; ATF4 mRNA expression increase (ATF4, CHOP, and BIP; in vitro sulforaphane studies): 4-5 fold; BIP increase at the transcriptional level (ATF4, CHOP, and BIP; in vitro sulforaphane studies): 2-3 fold; CHOP mRNA expression increase (ATF4, CHOP, and BIP; in vitro sulforaphane studies): 4-5 fold
CC(/C=C/C(=O)NO)=C\[C@@H](C)C(=O)c1ccc(N(C)C)cc1 [TSA, trichostatin A] | no marked changes | activated | increased | significantly increased | significantly decreased |  | 2.5 fold | increased | increased | significantly increased | increased | increased | activated | significantly increased | significantly increased | increase percentage of full | increase F-cell production | 

Reference: patent US8937050B2, “Methods and compositions for treatment of autism” (The Johns Hopkins University, priority 2011, dated 2015)
